From PMC10746543, “Design principles for cyclin K molecular glue degraders” (Nature Chemical Biology, 2023)
Several values for one entry are separate records, joined by “and”; a condition that tells them apart may be missing. Equal entries are not always repeated. Where two headings read alike, the source gives them in different places.

Tests used:
CDK2–cyclin A = target: T1, CDK2–cyclin A (Homo sapiens, UniProt P24941); assay: Lanthascreen kinase binding assay, CDK2; conditions: for Lanthascreen signal, sheet CDK2: raw replicates, experiment r1-r11
T1 construct: purchased Thermo Fisher
Procedure: (§1) Lanthascreen experiments were performed using commercially available reagents (Thermo Fisher) and according to the manufacturer’s instructions.

[1] = system: cyclin K–eGFP degradation reporter; assay: Cyclin K reporter stability analysis (dual-color cyclin K–eGFP reporter); type: cell-based, human; conditions: source data sheet correlations
How it was run: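 Readout was the eGFP-to-mCherry geometric-mean ratio by flow cytometry, normalized to three DMSO controls, after 5 h drug exposure. Cells used were HEK293T–Cas9 expressing the dual-colour cyclin K–eGFP degradation reporter.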

HEK293T cells = assay: Drug sensitivity assay (CellTiter-Glo viability) with or without MLN4924 pretreatment; type: cell-based, human; conditions: Supplementary Table 2; for EC50: Homo sapiens, HEK-293T, HEK293T viability, 72 h, compound alone, read-out: Cellular assays EC50; for Toxicity rescue: MLN4924-mediated cytotoxicity rescue, 10 µM used where n.d.
How it was run: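 First, cells (HEK293T–Cas9, 0.15 × 10^6 ml^−1) are exposed to DMSO or 100 nM MLN4924. Next, drugs follow at 2 h. Finally, CellTiter-Glo is read at day 3 and normalised to DMSO.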

CDK12–cyclin K = CDK12–cyclin K (Homo sapiens, UniProt Q9NYV4); assay: Lanthascreen kinase binding assay, CDK12; conditions: for IC50: Supplementary Table 2, read-out: Lanthascreen IC50 [nM] CDK12; for Lanthascreen raw signal, sheet CDK12: series r1, duplicates
Procedure: as §1

CDK9–cyclin T = target: T2, CDK9–cyclin T (Homo sapiens, UniProt P50750); assay: Lanthascreen kinase binding assay, CDK9; conditions: for IC50: Supplementary Table 2, read-out: Lanthascreen IC50 [nM] CDK9; for Lanthascreen TR-FRET signal (raw ratio), sheet CDK9: first titration set (r1), duplicates
T2 construct: purchased Thermo Fisher
Procedure: as §1

CDK12–cyclin K and DDB1 = target: T3, CDK12–cyclin K and DDB1 (Homo sapiens, UniProt Q16531+Q9NYV4, K965R); assay: TR-FRET ternary complex formation assay (compound titration); type: binding; conditions: for TR-FRET signal at compound concentration 0.468 nM / TR-FRET signal at compound concentration 2.16 nM / TR-FRET signal at compound concentration 3.6 nM / TR-FRET signal at compound concentration 7.92001 nM / TR-FRET signal at compound concentration 15.84 nM / TR-FRET signal at compound concentration 30.96 nM / TR-FRET signal at compound concentration 62.6401 nM / TR-FRET signal at compound concentration 125.28 nM / TR-FRET signal at compound concentration 244.8 nM / TR-FRET signal at compound concentration 993.601 nM / TR-FRET signal at compound concentration 2001.6 nM: raw replicate titration data
T3 construct: His6–CDK12 (a.a. 713–1,052); full-length or beta-propeller B domain deletion (ΔBPB: a.a. 396–705 deleted) constructs of His6–DDB1ΔBPB, StrepII–Avi–DDB1, or His6–Spy–DDB1; made in house; host or cells: Trichoplusia ni High Five insect cells (baculovirus)
How it was run: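 Background fluorescence is reduced by reading 70 μs after excitation, and complex formation is followed as the 520:490 nm fluorescence ratio.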

[2] = Supplementary Table 2, read-out: Lanthascreen IC50 [nM] CDK2
[3] = in vitro complex formation, 50 nM CDK12–cyclin K, 100 nM DDB1, text and figures, read-out: TR-FRET EC50
[4] = source data sheet correlations, read-out: TR-FRET EC50

Chain of CDK12–cyclin K (Q9NYV4 713-1052): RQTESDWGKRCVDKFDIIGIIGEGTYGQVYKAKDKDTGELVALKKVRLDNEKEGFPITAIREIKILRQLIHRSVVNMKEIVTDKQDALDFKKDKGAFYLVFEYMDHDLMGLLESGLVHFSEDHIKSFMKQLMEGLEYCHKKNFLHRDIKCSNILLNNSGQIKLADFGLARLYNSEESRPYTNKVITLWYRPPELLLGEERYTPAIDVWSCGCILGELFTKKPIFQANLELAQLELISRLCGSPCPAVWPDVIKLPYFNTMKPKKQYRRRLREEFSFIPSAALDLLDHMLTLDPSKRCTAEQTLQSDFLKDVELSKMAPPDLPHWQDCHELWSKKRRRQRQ
Chain of CDK12–cyclin K (O75909 1-267 partner limits assumed): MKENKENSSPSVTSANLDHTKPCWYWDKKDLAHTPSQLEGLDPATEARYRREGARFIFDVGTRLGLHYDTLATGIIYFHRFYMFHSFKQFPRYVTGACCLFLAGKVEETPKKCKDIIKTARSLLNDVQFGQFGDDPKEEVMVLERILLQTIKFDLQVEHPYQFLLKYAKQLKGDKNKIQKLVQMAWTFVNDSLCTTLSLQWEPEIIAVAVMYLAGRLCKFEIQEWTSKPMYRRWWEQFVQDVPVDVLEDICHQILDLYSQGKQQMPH
T3 sequence (Q9NYV4 713-1052 K965R): as the sequence (Q9NYV4 713-1052) above, with K253R counted along it
T3 sequence (O75909 1-267 partner): as the sequence (O75909 1-267 partner limits assumed) above
T3 sequence (Q16531 whole entry): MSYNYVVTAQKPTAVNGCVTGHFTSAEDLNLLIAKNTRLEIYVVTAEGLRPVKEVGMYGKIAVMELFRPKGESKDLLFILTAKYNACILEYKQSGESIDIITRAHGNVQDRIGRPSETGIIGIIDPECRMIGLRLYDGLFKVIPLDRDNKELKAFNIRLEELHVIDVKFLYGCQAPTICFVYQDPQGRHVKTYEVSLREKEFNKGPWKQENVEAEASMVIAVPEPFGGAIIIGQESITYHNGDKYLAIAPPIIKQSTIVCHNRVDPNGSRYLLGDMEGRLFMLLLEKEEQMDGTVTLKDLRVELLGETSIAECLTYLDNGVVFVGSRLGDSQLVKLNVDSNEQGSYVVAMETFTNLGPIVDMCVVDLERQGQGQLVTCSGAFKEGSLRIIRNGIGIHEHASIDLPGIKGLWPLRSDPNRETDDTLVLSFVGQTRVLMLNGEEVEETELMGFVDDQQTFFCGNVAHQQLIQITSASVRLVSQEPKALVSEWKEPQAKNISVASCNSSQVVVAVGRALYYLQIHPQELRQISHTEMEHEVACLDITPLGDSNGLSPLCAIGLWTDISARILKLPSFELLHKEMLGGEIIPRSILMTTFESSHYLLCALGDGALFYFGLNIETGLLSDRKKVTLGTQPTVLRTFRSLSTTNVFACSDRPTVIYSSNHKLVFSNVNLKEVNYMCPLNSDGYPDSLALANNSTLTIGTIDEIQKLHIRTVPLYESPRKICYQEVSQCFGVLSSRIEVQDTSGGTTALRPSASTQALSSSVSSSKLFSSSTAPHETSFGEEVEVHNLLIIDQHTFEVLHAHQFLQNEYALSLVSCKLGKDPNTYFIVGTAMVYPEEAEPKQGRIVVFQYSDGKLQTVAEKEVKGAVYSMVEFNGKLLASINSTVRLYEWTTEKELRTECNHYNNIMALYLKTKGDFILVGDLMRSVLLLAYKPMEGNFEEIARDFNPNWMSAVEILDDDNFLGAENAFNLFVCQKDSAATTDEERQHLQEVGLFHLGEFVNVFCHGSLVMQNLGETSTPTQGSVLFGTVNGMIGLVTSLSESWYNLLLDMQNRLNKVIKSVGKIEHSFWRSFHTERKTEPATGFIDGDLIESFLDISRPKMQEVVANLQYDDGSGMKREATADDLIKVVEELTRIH
T2 sequence (P50750 whole entry): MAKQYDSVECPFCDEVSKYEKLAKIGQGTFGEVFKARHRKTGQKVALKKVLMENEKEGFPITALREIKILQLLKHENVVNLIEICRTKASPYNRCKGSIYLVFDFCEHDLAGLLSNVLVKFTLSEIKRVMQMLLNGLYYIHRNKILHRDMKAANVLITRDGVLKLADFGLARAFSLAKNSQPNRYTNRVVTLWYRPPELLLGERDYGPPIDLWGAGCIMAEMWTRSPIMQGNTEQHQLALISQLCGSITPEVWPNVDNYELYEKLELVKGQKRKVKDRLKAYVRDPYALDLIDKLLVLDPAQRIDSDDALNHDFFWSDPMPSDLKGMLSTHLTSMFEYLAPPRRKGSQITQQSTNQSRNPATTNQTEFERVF
T2 sequence (O60563 whole entry partner): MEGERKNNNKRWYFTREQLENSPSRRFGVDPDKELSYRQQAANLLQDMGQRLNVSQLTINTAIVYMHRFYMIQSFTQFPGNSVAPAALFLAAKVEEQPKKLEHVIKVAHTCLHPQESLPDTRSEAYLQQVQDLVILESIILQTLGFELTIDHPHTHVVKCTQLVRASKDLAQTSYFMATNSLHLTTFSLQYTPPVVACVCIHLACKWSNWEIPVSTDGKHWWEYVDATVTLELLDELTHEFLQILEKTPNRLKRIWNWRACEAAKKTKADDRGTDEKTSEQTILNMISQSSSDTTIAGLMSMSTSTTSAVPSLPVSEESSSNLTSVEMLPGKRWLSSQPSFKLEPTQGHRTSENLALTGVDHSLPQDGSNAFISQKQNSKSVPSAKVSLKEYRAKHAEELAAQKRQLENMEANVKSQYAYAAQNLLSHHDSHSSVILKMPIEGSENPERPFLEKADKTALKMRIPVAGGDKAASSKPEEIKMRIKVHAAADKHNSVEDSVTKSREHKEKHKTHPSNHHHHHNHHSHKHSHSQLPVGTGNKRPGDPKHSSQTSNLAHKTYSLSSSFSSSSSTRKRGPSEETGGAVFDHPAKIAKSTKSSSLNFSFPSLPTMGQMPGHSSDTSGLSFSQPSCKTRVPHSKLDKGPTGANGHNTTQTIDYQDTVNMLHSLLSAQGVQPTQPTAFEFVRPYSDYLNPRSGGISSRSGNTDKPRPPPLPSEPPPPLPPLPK

CN1CCN(c2nc(NCc3nc4c(F)c(F)ccc4[nH]3)n3ncc(Br)c3n2)CC1 [DS71]
Lanthascreen signal, sheet CDK2 (CDK2–cyclin A; Compound 1.02544 nM): 0.009545 and 0.009565
Lanthascreen signal, sheet CDK2 (CDK2–cyclin A; Compound 3.15521 nM): 0.01077 and 0.01025
Lanthascreen signal, sheet CDK2 (CDK2–cyclin A; Compound 9.46563 nM): 0.009718 and 0.00939
Lanthascreen signal, sheet CDK2 (CDK2–cyclin A; Compound 31.5521 nM): 0.009822 and 0.01021
Lanthascreen signal, sheet CDK2 (CDK2–cyclin A; Compound 99.3891 nM): 0.009696 and 0.01058
Lanthascreen signal, sheet CDK2 (CDK2–cyclin A; Compound 315.521 nM): 0.0105 and 0.00942
Lanthascreen signal, sheet CDK2 (CDK2–cyclin A; Compound 3155.21 nM): 0.01064 and 0.008324
Lanthascreen signal, sheet CDK2 (CDK2–cyclin A; Compound 10002 nM): 0.005535 and 0.005659
IC50 (CDK2–cyclin A; Lanthascreen, average, Extended Data Fig. 8, read-out: CDK2 IC50): > 10000 nM
IC50 (CDK2–cyclin A; [2]): > 10000 nM
DC50 ([1]; log value): 4 nM
DC50 ([1]; read-out: DC50): 4 nM
EC50 (HEK293T cells): 10 nM
Toxicity rescue (HEK293T cells): 610%
IC50 (CDK12–cyclin K): 134 nM
Lanthascreen raw signal, sheet CDK12 (CDK12–cyclin K; compound 1.02544 nM): 0.006087 and 0.009032
Lanthascreen raw signal, sheet CDK12 (CDK12–cyclin K; compound 3.15521 nM): 0.01061 and 0.007755
Lanthascreen raw signal, sheet CDK12 (CDK12–cyclin K; compound 9.46563 nM): 0.009135 and 0.006327
Lanthascreen raw signal, sheet CDK12 (CDK12–cyclin K; compound 31.5521 nM): 0.007705 and 0.007896
Lanthascreen raw signal, sheet CDK12 (CDK12–cyclin K; compound 99.3891 nM): 0.007199 and 0.007003
Lanthascreen raw signal, sheet CDK12 (CDK12–cyclin K; compound 315.521 nM): 0.006511 and 0.005836
Lanthascreen raw signal, sheet CDK12 (CDK12–cyclin K; compound 3155.21 nM): 0.006388 and 0.004562
Lanthascreen raw signal, sheet CDK12 (CDK12–cyclin K; compound 10002 nM): 0.005868 and 0.005096
IC50 (CDK9–cyclin T): 684 nM
Lanthascreen TR-FRET signal (raw ratio), sheet CDK9 (CDK9–cyclin T; compound 1.02544 nM): 0.01471 and 0.01339
Lanthascreen TR-FRET signal (raw ratio), sheet CDK9 (CDK9–cyclin T; compound 3.15521 nM): 0.01367 and 0.0125
Lanthascreen TR-FRET signal (raw ratio), sheet CDK9 (CDK9–cyclin T; compound 9.46563 nM): 0.01267 and 0.01475
Lanthascreen TR-FRET signal (raw ratio), sheet CDK9 (CDK9–cyclin T; compound 31.5521 nM): 0.01209 and 0.01181
Lanthascreen TR-FRET signal (raw ratio), sheet CDK9 (CDK9–cyclin T; compound 99.3891 nM): 0.01168 and 0.01283
Lanthascreen TR-FRET signal (raw ratio), sheet CDK9 (CDK9–cyclin T; compound 315.521 nM): 0.01175 and 0.01042
Lanthascreen TR-FRET signal (raw ratio), sheet CDK9 (CDK9–cyclin T; compound 3155.21 nM): 0.005807 and 0.004691
Lanthascreen TR-FRET signal (raw ratio), sheet CDK9 (CDK9–cyclin T; compound 10002 nM): 0.004107 and 0.003744
TR-FRET signal at compound concentration 0.468 nM (CDK12–cyclin K and DDB1): 0.3328 and 0.3098
TR-FRET signal at compound concentration 2.16 nM (CDK12–cyclin K and DDB1): 0.4001 and 0.3765
TR-FRET signal at compound concentration 3.6 nM (CDK12–cyclin K and DDB1): 0.5431 and 0.4961
TR-FRET signal at compound concentration 7.92001 nM (CDK12–cyclin K and DDB1): 0.8328 and 0.7643
TR-FRET signal at compound concentration 15.84 nM (CDK12–cyclin K and DDB1): 1.412 and 1.246
TR-FRET signal at compound concentration 30.96 nM (CDK12–cyclin K and DDB1): 2.416 and 2.183
TR-FRET signal at compound concentration 62.6401 nM (CDK12–cyclin K and DDB1): 3.349 and 3.281
TR-FRET signal at compound concentration 125.28 nM (CDK12–cyclin K and DDB1): 3.867 and 3.698
TR-FRET signal at compound concentration 244.8 nM (CDK12–cyclin K and DDB1): 3.9597 and 3.8541
TR-FRET signal at compound concentration 993.601 nM (CDK12–cyclin K and DDB1): 3.967 and 3.873
TR-FRET signal at compound concentration 2001.6 nM (CDK12–cyclin K and DDB1): 4.005 and 3.884
EC50 (CDK12–cyclin K and DDB1; [3]): 28 ± 1 nM
EC50 (CDK12–cyclin K and DDB1; sheet MOESM7, read-out: log TR-FRET EC50 (converted)): 27.6 nM
EC50 (CDK12–cyclin K and DDB1; [4]): 27.6 nM

Fc1ccc2[nH]c(CNc3nc(N4CCOCC4)nc4c(Br)cnn34)nc2c1F [DS72]
Lanthascreen signal, sheet CDK2 (CDK2–cyclin A; Compound 1.02544 nM): 0.009384 and 0.009817
Lanthascreen signal, sheet CDK2 (CDK2–cyclin A; Compound 3.15521 nM): 0.009333 and 0.009829
Lanthascreen signal, sheet CDK2 (CDK2–cyclin A; Compound 9.46563 nM): 0.009654 and 0.01088
Lanthascreen signal, sheet CDK2 (CDK2–cyclin A; Compound 31.5521 nM): 0.008522 and 0.009526
Lanthascreen signal, sheet CDK2 (CDK2–cyclin A; Compound 99.3891 nM): 0.01016 and 0.009968
Lanthascreen signal, sheet CDK2 (CDK2–cyclin A; Compound 315.521 nM): 0.008698 and 0.009504
Lanthascreen signal, sheet CDK2 (CDK2–cyclin A; Compound 3155.21 nM): 0.005132 and 0.004872
Lanthascreen signal, sheet CDK2 (CDK2–cyclin A; Compound 10002 nM): 0.003933 and 0.00458
IC50 (CDK2–cyclin A; [2]): 1060 nM
DC50 ([1]; read-out: DC50): 6 nM
EC50 (HEK293T cells): 6 nM
Toxicity rescue (HEK293T cells): 533%
IC50 (CDK12–cyclin K): 1 nM
Lanthascreen raw signal, sheet CDK12 (CDK12–cyclin K; compound 1.02544 nM): 0.008081 and 0.009101
Lanthascreen raw signal, sheet CDK12 (CDK12–cyclin K; compound 3.15521 nM): 0.008849 and 0.007319
Lanthascreen raw signal, sheet CDK12 (CDK12–cyclin K; compound 9.46563 nM): 0.006356 and 0.00835
Lanthascreen raw signal, sheet CDK12 (CDK12–cyclin K; compound 31.5521 nM): 0.005926 and 0.005481
Lanthascreen raw signal, sheet CDK12 (CDK12–cyclin K; compound 99.3891 nM): 0.005678 and 0.004673
Lanthascreen raw signal, sheet CDK12 (CDK12–cyclin K; compound 315.521 nM): 0.005163 and 0.006077
Lanthascreen raw signal, sheet CDK12 (CDK12–cyclin K; compound 3155.21 nM): 0.003862 and 0.004893
Lanthascreen raw signal, sheet CDK12 (CDK12–cyclin K; compound 10002 nM): 0.003963 and 0.004045
IC50 (CDK9–cyclin T): 104 nM
Lanthascreen TR-FRET signal (raw ratio), sheet CDK9 (CDK9–cyclin T; compound 1.02544 nM): 0.0138 and 0.01522
Lanthascreen TR-FRET signal (raw ratio), sheet CDK9 (CDK9–cyclin T; compound 3.15521 nM): 0.01223 and 0.01249
Lanthascreen TR-FRET signal (raw ratio), sheet CDK9 (CDK9–cyclin T; compound 9.46563 nM): 0.0129 and 0.01178
Lanthascreen TR-FRET signal (raw ratio), sheet CDK9 (CDK9–cyclin T; compound 31.5521 nM): 0.00952 and 0.01286
Lanthascreen TR-FRET signal (raw ratio), sheet CDK9 (CDK9–cyclin T; compound 99.3891 nM): 0.008274 and 0.008068
Lanthascreen TR-FRET signal (raw ratio), sheet CDK9 (CDK9–cyclin T; compound 315.521 nM): 0.006761 and 0.006072
Lanthascreen TR-FRET signal (raw ratio), sheet CDK9 (CDK9–cyclin T; compound 3155.21 nM): 0.003594 and 0.002711
Lanthascreen TR-FRET signal (raw ratio), sheet CDK9 (CDK9–cyclin T; compound 10002 nM): 0.003294 and 0.003353
TR-FRET signal at compound concentration 0.468 nM (CDK12–cyclin K and DDB1): 0.3453 and 0.3314 and 0.2038 and 0.2054
TR-FRET signal at compound concentration 2.16 nM (CDK12–cyclin K and DDB1): 0.4522 and 0.4261 and 0.3132 and 0.3307
TR-FRET signal at compound concentration 3.6 nM (CDK12–cyclin K and DDB1): 0.6871 and 0.6344 and 0.5591 and 0.6106
TR-FRET signal at compound concentration 7.92001 nM (CDK12–cyclin K and DDB1): 1.2161 and 1.061 and 1.142 and 1.169
TR-FRET signal at compound concentration 15.84 nM (CDK12–cyclin K and DDB1): 2.149 and 1.974 and 2.1219 and 2.262
TR-FRET signal at compound concentration 30.96 nM (CDK12–cyclin K and DDB1): 3.31 and 3.181 and 2.938 and 2.942
TR-FRET signal at compound concentration 62.6401 nM (CDK12–cyclin K and DDB1): 3.363 and 3.323 and 3.061 and 3.125
TR-FRET signal at compound concentration 125.28 nM (CDK12–cyclin K and DDB1): 3.473 and 3.376 and 3.04 and 3.123
TR-FRET signal at compound concentration 244.8 nM (CDK12–cyclin K and DDB1): 3.475 and 3.275 and 3.121 and 3.153
TR-FRET signal at compound concentration 993.601 nM (CDK12–cyclin K and DDB1): 3.459 and 3.133 and 3.073
TR-FRET signal at compound concentration 2001.6 nM (CDK12–cyclin K and DDB1): 3.344 and 3.271 and 3.14 and 3.1113
EC50 (CDK12–cyclin K and DDB1; [3]): 12 ± 1 nM
EC50 (CDK12–cyclin K and DDB1; [4]): 12.2 nM
